Data: patent US11274132B2, “Combined preparations of PKM2 modulators and HMGB1” (Ruprecht-Karls-Universität Heidelberg, priority 2015, dated 2022)

Tests used:
colorectal cancer cells = assay: Crystal violet cytotoxicity assay, cell lines not given; assay type: cell-based; settings: HMGB1 80 nM, 72 h
Procedure: Human colon carcinoma cell lines SW480, HCT116, HT29 and Caco2, the human glioblastoma cell line U251MG and the Natural killer cell line NK-92 Cl were purchased from ATCC. Cell lines were regularly tested for contamination by multiplex PCR performed in the Genomics and Proteomics Core Facility 2 (DKFZ, Heidelberg, Germany). For experiments, cells were cultured for no more than 10 passages. Rho zero cells were generated as described earlier 1. (Gdynia, G. et al. Danger signaling protein HMGB1 induces a distinct form of cell death accompanied by formation of giant mitochondria. Cancer research 70, 8558-8568). Cells used in the experiments were cultured in RPMI (#1640, colon carcinomas, NK cells) or DMEM high glucose (#41965-039, glioblastoma cells) medium. Rho zero cells were generated as described earlier (Gdynia, G. et al. ibd.). Briefly, cells were cultured in RPMI medium (10% FCS, 1% P/S) supplemented with 250 ng/ml ethidiumbromide, 50 μg/ml L-pyruvate and 5 mg/ml uridine over a period of 12 weeks. For cytotoxicity measurements, cells were cultured in 96-well plates, treated with recombinant human HMGB1 protein (Sigma-Aldrich®), glycyrrhizinic acid ((3β, 18α)-30-hydroxy-11, 30-dioxoolean-12-en-3-yl 2-O-β-D-glucopyranuronosyl-β-D-glucopyranosiduronic acid)) (Sigma-Aldrich®), 10 μM (non-toxic) or 100 μM (cytotoxic) P-M2tide (aa sequence: GGAVDDDpYAQFANGG; #BML-P239-0001; Enzo Life Sciences) or 100 μM ML-265 (Cayman Chemical), then cell viability was assessed by crystal violet staining (Gillies, R. J., Didier, N. & Denton, M. Determination of cell number in monolayer cultures. Analytical biochemistry 159, 109-113 (1986)). Malic enzyme 1 knock-down was performed with 40 nM siRNA using lipofectamine in 6-well plates followed by treatment with 80 nM HMGB1 for 72 h. Sequences of siRNA were: ME1, 5′-[…]-3′ and scrambled control 5′-CCUGCAGUACUUCAAGCGGtt-3′. PKM2 siRNA was from Santa Cruz. A nonspecific siRNA served as control (Dharmacon, Schwerte, Germany). For overexpression of PKM2 or ME1, cells were transfected with pCMV-PKM2 (Sino Biological Inc., Beijing, China) or pCMV-ME1 (OriGene, Rockville, Md., USA) using Lipofectamine 2000. For cytotoxicity measurements confluent cells were cultured in 96-well plates if not otherwise indicated. Cytotoxic activity of supernatants from stimulated NK cells was assessed in 96-well plates for 3 days with RPMI medium as reference. Recombinant human HMGB1 (10 ng, Sigma) suited as positive control. For mass isotopomer assays, cells were cultured in glucose- or glutamine-free medium supplemented with either uniformly labeled (U)-13C-D-glucose or U-13C-glutamine (Sigma-Aldrich®).

ATP production = ATP production calculated from lactate production rates and oxygen consumption; assay type: cell-based, human; settings: SW480 cells; HMGB1 80 nM, 24 h
Procedure: Lactate derived from the metabolism of ^13C6-D-glucose or ^13C5-glutamine was determined by comparing the CH3 group intensities of labeled and non-labeled lactate in NMR. Mitochondrial respiration was measured using an Oroboros 1 oxygraph system. Glycolysis was measured by monitoring the conversion of 5-^3H-Glucose to ^3H2O. Incorporation of ^14C into RNA ribose from U-^14C-labelled glucose was taken as glucose utilization in the pentose phosphate shunt. Enzymatic activities were determined in subcellular fractions as previously described^24.
For analysis of ^13C-lactate efflux 1 ml of the cellular supernatant was centrifuged (8,000×g, 10 min, 4° C.) to spin down cellular debris. To 500 μl of the supernatant 10% of D2O were added respectively and transferred to 5 mm NMR sample tubes. The samples were measured with a Bruker AvanceIII 600 NMR spectrometer, equipped with a cryogenically cooled detection probe (QNP-CryoProbe™).

tetrameric PK M2 = target: T1, tetrameric PK M2 (Homo sapiens, UniProt P14618); assay: Pyruvate kinase enzymatic assay in cytosolic fractions / homogenates (low PEP); assay type: cell-based
T1 construct: Activities of glycolytic enzymes measured in cytosolic fractions after treatment with HMGB1; endogenous in cells; host or cells: SW480, HCT116, HT29 cytosolic fractions; homogenates of human colon cancer tissue slices
Procedure: Enzymatic activities of respiratory chain complexes, glycolytic proteins and malic enzyme were determined in subcellular fractions as previously described (Kaminski, M. M. et al. T cell activation is driven by an ADP-dependent glucokinase linking enhanced glycolysis with mitochondrial reactive oxygen species generation. Cell reports 2, 1300-1315 (2012).Bruncko, M. et al. Naphthamidine urokinase plasminogen activator inhibitors with improved pharmacokinetic properties. Bioorganic & medicinal chemistry letters 15, 93-98, (2005)) using a computer-tuneable spectrophotometer (Spectramax Plus Microplate Reader, Molecular Devices; Sunny Vale, Calif., USA) operating in the dual wavelength mode; samples were analyzed in temperature-controlled 96-well plates in a final volume of 300 μl. Activity of ME1 was recorded in presence of increasing amounts of malic acid (0.02, 0.05, 0.1, 0.2, 0.5, 1, 2.5 mM). Vmax and Km were calculated using a Hanes-Woolf plot. In the presence of high substrate levels the Km for malic acid was similar in all three tested cell lines (SW480: 0.32 mM, HCT116: 0.30 mM, HT29: 0.31 mM). Vmax (mU/mg protein) values were 3.38 (SW480, 0.5-5.0 mM malic acid), 5.77 (HCT116, 0.5-5.0 mM malic acid) and 3.68 (HT29, 0.5-5.0 mM malic acid) and 1.68 (SW480, 0.02-0.2 mM malic acid), 3.24 (HCT116, 0.02-0.2 mM malic acid) and 1.89 (HT29, 0.02-0.2 mM malic acid). Two isoforms of ME1, mitochondrial (NAD(P)+dependent) ME3 and mitochondrial (NAD+dependent) ME2, had very low or no detectable activities (data not shown).

ATP = assay: Cellular ATP after HMGB1 treatment; assay type: cell-based, human

T1 sequence (P14618 2-531): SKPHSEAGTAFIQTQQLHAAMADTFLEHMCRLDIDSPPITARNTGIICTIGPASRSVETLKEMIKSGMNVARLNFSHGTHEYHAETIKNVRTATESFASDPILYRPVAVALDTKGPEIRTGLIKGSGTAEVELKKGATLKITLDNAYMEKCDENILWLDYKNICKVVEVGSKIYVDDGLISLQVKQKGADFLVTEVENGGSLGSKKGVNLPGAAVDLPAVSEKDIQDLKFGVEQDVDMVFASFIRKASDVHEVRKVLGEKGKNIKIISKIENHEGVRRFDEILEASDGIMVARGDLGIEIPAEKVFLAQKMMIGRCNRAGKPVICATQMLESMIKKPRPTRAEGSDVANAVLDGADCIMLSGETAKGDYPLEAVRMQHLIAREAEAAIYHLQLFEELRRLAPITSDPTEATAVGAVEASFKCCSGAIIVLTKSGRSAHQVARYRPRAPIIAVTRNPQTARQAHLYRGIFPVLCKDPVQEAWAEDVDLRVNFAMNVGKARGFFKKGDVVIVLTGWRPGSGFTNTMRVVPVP

In the case of “HMGB1: recombinant human HMGB1 protein (Sigma-Aldrich); High Mobility Group Box 1 polypeptide, human, SEQ ID NO: 4”, the “sensitivity of cells to HMGB1 after PKM2 down-regulation (siRNA)” value (colorectal cancer cells) was “sensitized”, the “sensitivity of cells to HMGB1 after PKM2 overexpression” value (colorectal cancer cells) was “more resistant” and the “decline of ATP production” value (ATP production) was roughly 50%. For the same substance, the “tetrameric PK M2 activity” value (tetrameric PK M2; all colorectal cancer cell lines tested, HMGB1 80 nM, 24 h) was “specifically inhibited”, the “tetrameric PK M2 activity” value (tetrameric PK M2; ex vivo tissue slice cultures, HMGB1 160 nM, 72 h) was “specifically inhibited” and the ATP (ATP; HCT116 cells) was “substantial decrease”. The ATP (ATP; SW480 cells) was “substantial decrease”.
